Data set [1] has as its system protein tyrosine kinase (PTK). Briefly: PTK activity assay with mouse brain tissue extract (ELISA, OD 492 nm). The class given is biochemical. The settings on record: at 400 μM. The method, then:
Tyrosine kinase buffer: 10 mL 1M HEPES (pH 7.5), 0.4 mL 5% BSA/PBS, 0.2 mL 0.1M Na3VO4, and 1 mL 5M NaCl were added to 88.4 mL double distilled water (DDW) (HEPES: Amresco; Na3VO4: Sigma).
Extraction of tissue extract PTK: mouse brain tissue was quickly removed and weighed, followed by addition of five-fold volumes of pre-cooled homogenization buffer for homogenization. After centrifugation at 4° C., 1,000 g for 10 min, nuclei and cell debris were removed. The supernatant S1 was collected and centrifuged at 4° C., 10,000 g for 20 min, and then the supernatant S2 was collected. The precipitate P2, which represents the crude membrane protein fraction, was retained. S2 included cytoplasmic protein, and was used for testing protein tyrosine kinase (PTK) activity. In the detection of the membrane protein fraction, two-fold volumes of lysis buffer was added to P2, and the resultant was placed on ice for 10 min and centrifuged at 4° C., 10,000 g for 10 min. The supernatant S3, which represents the crude membrane protein including soluble membrane protein, was collected for testing PTK activity. Protein content in cytoplasm or membrane protein was detected by using BCA protein concentration kit (purchased from Beyotime Institute of Biotechnology). The tissue extract was stored at −70° C.
Coating of 96-well plate: PTK substrate was dissolved and added in an amount of 100 μl to each well. The plate was covered with its lid, and incubated at 4° C. overnight (10-12 hours). Then it was washed with 200 μl elution buffer once, and dried at 37° C. for 2 h. After that, it was washed with 10 mM PBS once, dried at room temperature, and then stored at 4° C. for further use.
Groups: blank control: 80 μl 1× tyrosine kinase buffer containing ATP+20 μl 1× tyrosine kinase buffer; negative control: 80 μl 1× tyrosine kinase buffer containing ATP+10 μl 1× tyrosine kinase buffer+7 μl tissue extract+3 μl 1× tyrosine kinase buffer; positive control: 80 μl 1× tyrosine kinase buffer containing ATP+10 μl Gefitinib+7 μl tissue extract+3 μl 1× tyrosine kinase buffer (first, the positive drug was allowed to interact with the tyrosine kinase tissue extract at room temperature for 10 min, and meanwhile the tissue extract for the negative control group was also placed at room temperature for 10 min, and then 80 μl 1× tyrosine kinase buffer containing ATP was added to respective groups); vehicle control: 80 μl 1× tyrosine kinase buffer containing ATP+10 μl DMSO+7 μl tissue extract+3 μl 1× tyrosine kinase buffer; drugs to be screened: 80 μl 1× tyrosine kinase buffer containing ATP+10 μl drug to be tested +7 μl tissue extract+3 μl 1× tyrosine kinase buffer.
PTK activity assay: 1× tyrosine kinase buffer was prepared by evenly mixing 1 mL (10×) tyrosine kinase buffer with 9 mL DDW. The tissue extract was diluted with 1× tyrosine kinase buffer appropriately, mixed with it gently and evenly, and placed on ice. ATP stock solution was dissolved by evenly mixing 48 μl ATP stock solution with 1 mL 1× tyrosine kinase buffer, and placed on ice. The microplate reader was added in respective wells with the groups formulated as above, covered with the lid, and incubated at room temperature for 30 min. The microplate reader was washed with 200 μl elution buffer and tapped until the residual buffer was removed, and this procedure was repeated for five times. To each well, 100 μl antibody diluent (antibody elution buffer diluted at a ratio of 1:2000) was added. The reader was covered with the lid, and incubated at room temperature for 30 min. OPD solution was prepared by addition of 4 mg OPD into a mixture of 4.86 mL 0.1 mol/L citric acid solution and 5.14 mL 0.2 mol/L Na2HPO4 solution, followed by addition of 50 μl 30% H2O2 to allow for complete dissolution, and then was protected from light. The antibody solution was removed. The reader was washed with 200 μl elution buffer and tapped until the residual buffer was removed, and this procedure was repeated for five times.

For the next data set, the system named is NCI-H460 cells. Briefly: Subcutaneous tumor-bearing nude mice model. The class given is in vivo. The settings on record: NCI-H460 s.c. nude mice; 16 mg/kg intraperitoneal, once every 24 h, 6 administrations; by tumor weight. The source says:
(§1) The cells were washed with PBS twice, and suspended.

In a further data set the test system is HepG2 cells. Description: Subcutaneous tumor-bearing nude mice model. The class given is in vivo. The settings on record: HepG2 s.c. nude mice; 16 mg/kg intraperitoneal, once every 24 h, 6 administrations; by tumor weight.
Description: as §1

For data set [2], the system named is neuroblastoma SK-N-SH cells. Description: Subcutaneous SK-N-SH tumor-bearing nude mouse model. The class given is in vivo, nu/nu female mice. The settings on record: SK-N-SH s.c. nude mice, once every 24 h, 6 administrations. The source says: Model establishment: nu/nu female mice of 6-8 weeks old were fed under an SPF condition in an animal facility for one week, and then each of them was inoculated with 5×10^6 neuroblastoma SK-N-SH cells (purchased from ATCC) subcutaneously in left flank. Tumor volume was monitored every day after inoculation. Once the size reached ˜100 mm^3, mice were divided into groups.
Each group included 10 animals.

The test system of another data set is MHCC-97H cells. Description: Liver orthotopic tumor model. The class given is in vivo, nude mice. The settings on record: for Tumor inhibition rate / Weight of tumor: 6 administrations; for Average weight (X ± S), End: animal weight at end, in g (unit assumed). The source says: The medium was changed once every 1-2 days. […] The subcultured tumor cells were digested under a sterile condition and resuspended with sodium chloride injection, and subcutaneously inoculated at the right flank of nude mice. When the subcutaneous tumors in the nude mice grew to a volume about 1,500-2,000 mm^3, the tumor mass was removed under a sterile condition, and cut into pieces in a size about 1.0×1.0 mm for future use. Then the nude mice to be inoculated were anesthetized and fixed on the operating table. The abdominal skin was disinfected, and an incision about 1 cm was made in the left upper abdomen to expose the liver, with the surgical site covered. The prepared tumor piece was placed into a dedicated inoculation trocar, and was implanted into the liver by using the trocar. The bleeding site of the wound was treated with sterilized gauze or sterilized cotton swab to stop the bleeding. Then liver which underwent surgery was placed back into the abdominal cavity of mice. The abdominal muscles and skin were sutured with 4/0 gauge surgical needle sequentially. After normal feeding of the mice for 2 weeks, size of liver tumor was observed under B-ultrasound.
Method: Animal models were randomized into vehicle control group, intraperitoneal low dose group (18 mg/kg), intraperitoneal high dose group (36 mg/kg), and gavage group (36 mg/kg), with 9 mice each group. The mice received treatment once every 24 hours. Intraperitoneal administration was done by intraperitoneal injection. The vehicle control group received DMSO injected intraperitoneally. Six times of administration were given. After the last administration, animals were kept for another 3 weeks, then sacrificed by cervical dislocation, and dissected to obtain liver. Visible tumor was dissected and weighed.

Setting [3] is: intraperitoneal high dose 36 mg/kg.
[4] abbreviates: intraperitoneal low dose 18 mg/kg.

Consider `Cc1ccccc1NS(=O)(=O)c1ccc2c(c1)/C(=C/c1nc3ccccc3[nH]1)C(=O)N2` [Indo 5, 3-(1H-benzimidazol-2-methylene)-5-(2-methylphenylaminosulfo)-2-indolone], for which the “Inhibition rate on tyrosine kinase” value in data set [1] is on record as 53.4%. Also, the Tumor inhibition rate in the data set with NCI-H460 cells stood at 59%; in the data set on HepG2 cells, 61%; in data set [2] (16 mg/kg gavage), 48%; in data set [2] (16 mg/kg intraperitoneal), 50%; in the data set on MHCC-97H cells (gavage (PO) 36 mg/kg), 62.2%; in the data set with MHCC-97H cells (setting [3]), 62.4%. The compound also displayed a Tumor inhibition rate in the data set on MHCC-97H cells (setting [4]) of 55.5%. Also, the Weight of tumor in the data set with MHCC-97H cells (gavage (PO) 36 mg/kg) turned out to be 0.401 ± 0.530 g; in the data set on MHCC-97H cells (setting [3]) it was 0.399 ± 0.486 g; in the data set on MHCC-97H cells (setting [4]) it was 0.473 ± 0.497 g. The “Average weight (X ± S), End” value came to 21.01 ± 3.41 in the data set with MHCC-97H cells (gavage (PO) 36 mg/kg), 21.18 ± 1.44 in the data set on MHCC-97H cells (setting [3]) and 20.61 ± 2.33 in the data set on MHCC-97H cells (setting [4]). Further, the “Disappearance of liver tumor at end of experiment” value in the data set on MHCC-97H cells (intraperitoneal high dose 36 mg/kg, 9 animals) is given as “Liver cancer was gone in one animal”.

Values taken from patent US9642839B2, “Substance having tyrosine kinase inhibitory activity and preparation method and use thereof” (Institute of Radiation Medicine, China Academy of Military …, priority 2013, dated 2017).
